Test results: publication PMC10121968, “Fosgonimeton, a Novel Positive Modulator of the HGF/MET System, Promotes Neurotrophic and Procognitive Effects in Models of Dementia” (Neurotherapeutics, 2022)
Non-standard residues stand in square brackets, D forms with d. Residues, ends and D or L forms follow the SMILES beside them. *: point of attachment. Hexanoyl = CCCCCC(=O)*; Ahx = NCCCCCC(=O)O

Key:
IL-1β = IL-1β release in LPS-challenged THP-1 macrophages (HTRF); type: cell-based, human; conditions: 1 µM, 20 min pretreatment, LPS 50 ng/mL 24 h, vs LPS + vehicle
Procedure: To determine the effect of fosgo-AM on LPS-induced cytokine release, we sought to determine the levels of interleukin-1β (IL-1β), interleukin-6 (IL-6), and tumor necrosis factor-α (TNF-α) in LPS-challenged THP-1–differentiated macrophages in the presence and absence of fosgo-AM. THP-1 monocytes were grown at 37 °C, 5% CO2 in Roswell Park Memorial Institute (RPMI) medium + 10% FBS until approximately 80% confluent. Cells were seeded in polystyrene-treated 96-well cell culture plates at approximately 50,000 cells/well in 100-µL complete media. 100 µL Phorbol myristate acetate was then added to each well for a final concentration of 100 ng/mL. The plate was then incubated for 3 days at 37 °C, 5% CO2 to prime the monocytes into macrophages. […] For cytokine quantification, cell culture supernatant was assayed by HTRF kits to assess levels of IL-1β (Human IL-1β kit, #62HIL1BPEG, Cisbio, Codolet, France) and IL-6 (Human IL-6 kit, 62HIL06PET, Cisbio, Codolet, France), and by ELISA (Human TNF-α ELISA kit, KHC3011, ThermoFisher, Waltham, Massachusetts) to determine the levels of TNF-α. […] Fluorescence emission at 2 different wavelengths (665 nm and 620 nm) were measured on an Envision plate reader (PerkinElmer, Waltham, Massachusetts), and HTRF ratio of the acceptor and donor emission signals for each well was calculated as follows: HTRF ratio = (665 nm/620 nm) × 10,000. […]

[1] = tested on: primary rat hippocampal neurons; assay: Synaptogenesis assay (synaptobrevin-II staining); type: cell-based; conditions: 8 days, vs vehicle
Procedure: On day 0, rat hippocampal neurons from newborn pups were isolated and cultured in brain neuronal culture medium (neurobasal medium supplemented with 5% FBS, 2% B-27 supplement, and 0.003% gentamycin) at 37 °C under 5% CO2. At 1 day in vitro (DIV1), cells were transferred to a poly-D-lysine–coated 24-well plate at approximately 10,000 cells/well. Cells were then grown in […] of serum-free medium and treated with the following: 0.1% dimethyl sulfoxide (DMSO; vehicle), 10 nM dihydrotestosterone (positive control), 10 nM fosgo-AM, 1 nM fosgo-AM, 5 ng/ml HGF, or 5 ng/ml HGF + 1 nM fosgo-AM. All treatments contained a final concentration of 0.1% DMSO. For the neurite outgrowth assay, treatment media were refreshed on DIV3, and cells were processed for analysis on DIV4. For the synaptogenesis assay, treatment media were refreshed on DIV3 and DIV6, and cells were processed for analysis on DIV8. Processing for both the neurite outgrowth and the synaptogenesis assays was performed as follows: media were removed, and cells were fixed with 100% methanol for 20 min at RT before methanol was aspirated and each well was washed twice with Dulbecco’s phosphate-buffered saline (DPBS). Cells were permeabilized using 0.02% […] (ThermoFisher, Waltham, Massachusetts) in DPBS for 2 min at RT without shaking, and plates were blocked with 5% bovine serum albumin (BSA) in DPBS for 1 h at RT. […] Ten images of single cells from a total of 2 assays were analyzed using NeuroJ plug-in for ImageJ to assess neurite outgrowth, as neurite length and the number of branches per neuron were counted for each cell. For the synaptogenesis assay, synaptic count (number of synapses) and synaptic strength (relative abundance of presynaptic vesicles per synapse as measured by synaptobrevin-II fluorescence intensity) were quantified for each cell. Data were assessed for normality (Shapiro–Wilk) and homoscedasticity (Brown-Forsythe). […]

CCCCCC(=O)N[C@@H](Cc1ccc(O)cc1)C(=O)N[C@H](C(=O)NCCCCCC(N)=O)[C@@H](C)CC [fosgo-AM] (Hexanoyl-Tyr-Ile-[Ahx]-NH2)
IL-1β release (IL-1β): significant decrease | number of synapses (synaptic count) ([1]; 1 nM fosgo-AM + 5 ng/mL HGF): significantly increased the number of synapses | synaptobrevin-II immunofluorescence intensity (synaptic strength) ([1]; 1 nM fosgo-AM + 5 ng/mL HGF): significantly enhanced immunofluorescence intensity of synaptobrevin-II | synaptobrevin-II immunofluorescence intensity (synaptic strength) ([1]; 1 nM): significantly enhanced immunofluorescence intensity of synaptobrevin-II
